pIC50, pKi: −log10 of the molar value. Read-outs that look alike come from different tables or passages of the source. Marks after values point to notes of the source that are not given here.

For assay [1], the target named is T1, human cannabinoid type-2 receptors (hCB2) (Homo sapiens, UniProt P34972).
T1 construct: expressed in transfected cells; host or cells: CHO cells (CHO-hCB2), membranes or intact cells
Description: [35S]GTPγS binding, CHO-hCB2 membranes. The following applies: for IMAX, GTPγS Binding (% Basal) CHO-hCB2: maximal reduction of basal G-protein activity; for pIC50: reduction of basal G-protein activity, read-out: IC50, GTPγS Binding CHO-hCB2. The assay is classed as biochemical. On the procedure: (§1) In short, pellets were thawed on ice, combined in a 40 ml glass Dounce homogenizer and homogenized in 20 ml of cold buffer (50 mM HEPES at pH 7.4, 3 mM MgCl2, and 1 mM EGTA) using 10 strokes. Homogenates were then centrifuged at 40,000 × g for 10 min at 4°C. After discarding the supernatant, pellets were homogenized and centrifuged twice more. Final pellets were re-suspended in ice-cold 50 mM HEPES, pH 7.4, aliquoted and stored at -80°C for future use. Protein concentration was determined the same day, prior to freezing, using BCA^TM Protein Assay (Thermo Fisher Scientific, Waltham, MA, USA).
(§2) Non-specific binding was defined by radioactivity remaining in the presence of 10 μM of non-radioactive GTPγS. All reactions were incubated for 30 min at 30°C, terminated by filtration through Whatman GF/B glass fiber filters (Brandel, Inc.) and followed by four 4 ml washes of ice cold filtration buffer (50 mM HEPES, pH 7.4) containing 0.1% bovine serum albumin. Filter punches of individual samples were placed in scintillation vials containing 4 mls of ScintiverseTM BD cocktail scintillation fluid (Fisher Scientific, Pittsburg, PA, USA). Final counts were determined using liquid scintillation spectrophotometry (Tri Carb 2100 TR Liquid Scintillation Analyzer, Packard Instrument Company, Meriden, CT, USA) after overnight incubation.
(§3) Statistical analyses were conducted by utilizing GraphPad Prism v6.0g (GraphPad Software, Inc.; San Diego, CA, USA). IC50 values from competition receptor binding curves were derived by non-linear regression. […] Non-linear regression analysis of concentration-effect curves was also used to determine potency (ED50 or IC50) and efficacy (Emax or Imax) for modulation of GTPγS and adenylyl cyclase activity, respectively. All IC50, EC50, Ki, and Kb values were converted to pEC50, pIC50, pKi, and pKb values in order to permit use of parametric statistical analyses. For all experiments comparing three or more values, an one-way ANOVA was employed, followed by Dunnett’s or Tukey’s post hoc tests. For comparisons of two values, an unpaired t-test was utilized. To determine significant radioligand displacement or modulation of G-protein activity compared to basal levels, a one-sample t-test was employed.
(§4) CBRs are coupled to Gi/Go type G-proteins. Therefore, binding of agonists to CBRs leads to G-protein activation, antagonists produce no effect, and inverse agonists reduce basal G-protein activity produced by constitutively active receptors. SERMs were screened by examining the ability of a single receptor saturating concentration (10 μM) to modulate G-protein activity in membranes prepared from CHO-hCB1 and CHO-hCB2 cells. G-protein activation was quantified using employing [^35S]GTPγS, a non-hydrolyzable analog of GTP, that irreversibly binds to the G-proteins when activated.
In general terms: Binding of GTPγS marks nucleotide exchange on a G protein.

In assay [2] the target is T2, human mu opioid receptors (CHO-hMOR cells) (Homo sapiens, UniProt P35372).
T2 construct: expressed in transfected cells; host or cells: CHO cells (CHO-hMOR), membranes or intact cells
Briefly: Adenylyl cyclase assay, CHO-hMOR cells (control not expressing hCB2Rs). In kind it is cell-based. The note with it: 10 μM.

For assay [3], the target named is T3, human cannabinoid type-1 receptors (hCB1) (Homo sapiens, UniProt P21554).
T3 construct: host or cells: CHO cells (CHO-hCB1), membranes or intact cells
Description: Competition receptor binding with [3H]CP-55,940, CHO-hCB1 membranes. Here is the method: as §1
The final volume of each sample was 1 ml, containing 50 mM Tris-HCl buffer (pH 7.4), 0.05% bovine serum albumin, 5 mM MgCl2, increasing concentrations of non-radioactive competing SERM ligands, and either 100 μg of CHO-hCB1 or 50 μg of CHO-hCB2 membrane homogenates. […] Each sample condition was performed in triplicate and allowed to reach equilibrium at room temperature for 90 min. Reactions were terminated by rapid vacuum filtration through Whatman GF/B glass fiber filters (Brandel, Inc.), followed by four 4 ml washes of ice-cold filtration buffer (50 mM Tris at pH 7.4 and 0.05% BSA). Filter punches of individual samples were placed in scintillation vials containing 4 mls of ScintiverseTM BD cocktail scintillation fluid (Fisher Scientific, Pittsburg, PA, USA). Final counts were determined using liquid scintillation spectrophotometry (Tri Carb 2100 TR Liquid Scintillation Analyzer, Packard Instrument Company, Meriden, CT, USA) after overnight incubation.
as §3
For initial comparison of potential SERM binding to CBRs, 14 commercially available compounds from 5 structurally distinct classes (Figure 1) were subjected to a radioligand binding screen (Figure 2).

Assay [4] concerns the target T3, human cannabinoid type-1 receptors (hCB1). Description: [35S]GTPγS binding, CHO-hCB1 membranes. The assay is classed as biochemical. The note with it: for IMAX, GTPγS Binding (% Basal) CHO-hCB1: maximal reduction of basal G-protein activity. On the procedure: as §1, §2, §3, §4
Assay [5] addresses T4, human mu opioid receptors (hMOR) (Homo sapiens, UniProt P35372).
T4 construct: expressed in transfected cells; host or cells: CHO cells (CHO-hMOR), membranes or intact cells
Briefly: [35S]GTPγS binding, CHO-hMOR membranes (control devoid of CBRs). The following applies: 10 μM. The assay is classed as biochemical. On the procedure: as §2

In assay [6] the target is T3, human cannabinoid type-1 receptors (hCB1). Description: Antagonism of CP-55,940 inhibition of adenylyl cyclase, intact CHO-hCB1 cells. The assay is classed as cell-based. The note with it: for IMAX of CP-55,940 after pre-incubation with the drug: CHO-hCB1 cells, pre-incubation 30 min: OSP, NAF, BAZ 10 μM, RAL 2 μM, AM-281 1 μM. Here is the method:
Briefly, cells cultured between passages 4 and 15 were seeded into 24-well plates at a concentration of 6.5 million cells per plate and incubated overnight in a humidified incubator maintained at 37°C and 5% CO2. Growth media was removed the next day and replaced with media containing […] [^3H]adenine, 0.9g/L NaCl, and 0.5 mM isobutyl-methyl-xanthine (IBMX) for 2–3 h. Radioactive media was then removed and each well treated with 0.5 ml of varying concentrations of SERM compounds in a Krebs-Ringer-HEPES solution (10 mM HEPES, 110 mM NaCl, 25 mM Glucose, 55 mM Sucrose, 5 mM KCl, 1 mM MgCl2, 1.8 mM CaCl2, pH 7.4) containing 0.5 mM IBMX and 10 μM forskolin. Plates were then floated in a 37°C water bath for 15 min before reactions were terminated by addition of 50 μL of 2.2 N HCl to each well.
Reactions were then terminated by adding 50 μL of 2.2 N HCl to each well. [^3H]cAMP was isolated using alumina column chromatography and radioactivity quantified following addition of 10 mls of scintiverseTM BD cocktail scintillation fluid (Fisher Scientific, Pittsburg, PA, USA) by liquid scintillation spectrophotometry (Tri Carb 2100 TR Liquid Scintillation Analyzer, Packard Instrument Company, Meriden, CT, USA).
as §3
IC50 and Kb values were converted to pIC50 and pKb values (pIC50 = -Log[IC50] or pKb = -Log[Kb], respectively) to allow use of parametric statistics for comparison.

T1 sequence (P34972 whole entry): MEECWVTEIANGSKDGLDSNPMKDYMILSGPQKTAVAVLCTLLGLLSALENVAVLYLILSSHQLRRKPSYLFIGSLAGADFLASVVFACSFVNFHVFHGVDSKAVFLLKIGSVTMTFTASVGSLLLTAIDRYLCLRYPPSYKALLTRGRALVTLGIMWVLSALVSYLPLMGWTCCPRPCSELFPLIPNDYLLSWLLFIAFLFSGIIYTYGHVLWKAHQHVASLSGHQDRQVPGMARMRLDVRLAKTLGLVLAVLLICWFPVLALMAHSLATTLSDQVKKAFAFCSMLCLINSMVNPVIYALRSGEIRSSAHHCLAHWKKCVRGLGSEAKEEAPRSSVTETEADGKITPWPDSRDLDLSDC
T3 sequence (P21554 whole entry): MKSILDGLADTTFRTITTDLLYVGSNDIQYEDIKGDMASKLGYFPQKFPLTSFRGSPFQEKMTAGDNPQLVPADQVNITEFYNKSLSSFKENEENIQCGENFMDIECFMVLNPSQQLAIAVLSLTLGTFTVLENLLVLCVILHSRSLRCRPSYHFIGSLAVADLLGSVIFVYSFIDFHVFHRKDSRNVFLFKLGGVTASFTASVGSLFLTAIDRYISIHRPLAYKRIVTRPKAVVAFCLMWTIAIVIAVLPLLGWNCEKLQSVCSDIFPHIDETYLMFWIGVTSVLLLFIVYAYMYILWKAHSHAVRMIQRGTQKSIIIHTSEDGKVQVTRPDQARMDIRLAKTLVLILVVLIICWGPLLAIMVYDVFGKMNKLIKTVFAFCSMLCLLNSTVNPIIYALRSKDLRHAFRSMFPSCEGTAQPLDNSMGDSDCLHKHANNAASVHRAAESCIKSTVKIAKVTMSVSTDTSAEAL
T4 sequence (P35372 whole entry): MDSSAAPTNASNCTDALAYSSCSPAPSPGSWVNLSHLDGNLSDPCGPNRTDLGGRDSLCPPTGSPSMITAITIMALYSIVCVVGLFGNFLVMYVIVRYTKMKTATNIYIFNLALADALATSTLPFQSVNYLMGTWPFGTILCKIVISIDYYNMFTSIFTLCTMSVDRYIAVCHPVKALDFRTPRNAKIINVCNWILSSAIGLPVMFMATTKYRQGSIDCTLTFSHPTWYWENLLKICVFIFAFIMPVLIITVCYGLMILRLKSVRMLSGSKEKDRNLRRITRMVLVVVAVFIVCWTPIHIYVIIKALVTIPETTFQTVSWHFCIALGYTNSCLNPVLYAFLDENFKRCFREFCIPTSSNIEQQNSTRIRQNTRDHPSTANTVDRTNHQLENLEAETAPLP
T2 sequence (P35372 whole entry): as above

For orientation: pIC50 means the negative decadic logarithm of the IC50, by convention in mol/L. As to `Cc1c(-c2ccc(O)cc2)n(Cc2ccc(OCCN3CCCCCC3)cc2)c2ccc(O)cc12` [BAZ, bazedoxifene], the “IMAX, GTPγS Binding (% Basal) CHO-hCB2” value in assay [1] is on record as 34.0 ± 1.0^b,∗ %. In assay [1] (CHO-hCB2 membranes), the pIC50 was 7.15. Further, the “effect on basal cAMP levels, CHO-hMOR cells” value in assay [2] was “only slightly altered”.
In general, pKi refers to −log10 of the Ki, conventionally taken in molar units. A word on the Kb: it is the equilibrium dissociation constant of an antagonist, usually derived from a functional assay. Turning to `OCCOc1ccc(/C(=C(/CCCl)c2ccccc2)c2ccccc2)cc1` [OSP, ospemifene], the pKi in assay [3] is 6.12. The “displacement of [3H]CP-55,940 from hCB1Rs” value in assay [3] (single 1 μM concentration, 0.2 nM [3H]CP-55,940, CHO-hCB1) is given as “approximately 50%”. Moreover, in assay [4], the pIC50 was 6.77 and the “IMAX, GTPγS Binding (% Basal) CHO-hCB1” value is recorded as 30.3 ± 2.0^a %. In addition, the “reduction of basal G-protein activity, hCB1Rs” value in assay [4] (CHO-hCB1 membranes, 10 μM) is given as roughly 30%. The “reduction of G-protein activity, hCB2Rs” value in assay [1] (CHO-hCB2 membranes, 10 μM) is listed as roughly 30%. Besides, the “IMAX, GTPγS Binding (% Basal) CHO-hCB2” value in assay [1] was 39.7 ± 2.4^a,∗∗ %. For the same compound, the negative-log IC50 (pIC50) in assay [1] (CHO-hCB2 membranes) is 6.25. For the same compound, the “decrease in basal G-protein activity, CHO-hMOR” value in assay [5] was 11%. In addition, in assay [6], the Kb is 173 nM and the “IMAX of CP-55,940 after pre-incubation with the drug” value was found to be 43.8 ± 2.7%.
As to `O=C(c1ccc(OCCN2CCCCC2)cc1)c1c(-c2ccc(O)cc2)sc2cc(O)ccc12` [RAL, raloxifene], in assay [1], the “IMAX, GTPγS Binding (% Basal) CHO-hCB2” value is reported as 34.3 ± 2.2^b,∗∗ %. Moreover, in assay [1] (CHO-hCB2 membranes), the pIC50 was 7.06.
Compound `COc1ccc2c(c1)CCC(c1ccccc1)=C2c1ccc(OCCN2CCCC2)cc1` [NAF, nafoxidine] gave a negative-log Ki (pKi) in assay [3] (CHO-hCB1 membranes, Cheng-Prusoff from IC50) of 6.02. Also, in assay [3] (ratio of Ki hCB1 / Ki hCB2), the “Selectivity (CB1/CB2)” value amounted to 0.74. For the same compound, the “IMAX, GTPγS Binding (% Basal) CHO-hCB1” value in assay [4] is listed as 31.7 ± 1.5^a %. In assay [4] (reduction of basal G-protein activity, CHO-hCB1 membranes, read-out: IC50, GTPγS Binding CHO-hCB1), the pIC50 was 6.28. Further, the IC50 in assay [1] (CHO-hCB2 membranes, mean ± SEM, read-out: pIC50, GTPγS Binding CHO-hCB2 (converted)) was 344 nM. In assay [1], the “IMAX, GTPγS Binding (% Basal) CHO-hCB2” value is reported as 38.7 ± 1.2^a,b,∗∗ %. Moreover, the “IMAX of CP-55,940 after pre-incubation with the drug” value in assay [6] worked out at 38.3 ± 1.7%. Further, in assay [6] (read-out: Kb (antagonist dissociation constant), CHO-hCB1), the antagonist dissociation constant (Kb) was 1160 nM.

For the origin of these results see publication PMC5177629, “Selective Estrogen Receptor Modulators: Cannabinoid Receptor Inverse Agonists with Differential CB1 and CB2 Selectivity” (Frontiers in Pharmacology, 2016).
